The source of these data is US20080119456A1, “Substituted Thiazoleacetic Acid as Crth2 Ligands” (priority 2004, published 2008).

The target of one assay is T1, human CRTH2-Rluc (Homo sapiens, UniProt Q9Y5Y4, V204A).
T1 construct: expressed in transfected cells
T1 sequence (Q9Y5Y4 1-395 V204A): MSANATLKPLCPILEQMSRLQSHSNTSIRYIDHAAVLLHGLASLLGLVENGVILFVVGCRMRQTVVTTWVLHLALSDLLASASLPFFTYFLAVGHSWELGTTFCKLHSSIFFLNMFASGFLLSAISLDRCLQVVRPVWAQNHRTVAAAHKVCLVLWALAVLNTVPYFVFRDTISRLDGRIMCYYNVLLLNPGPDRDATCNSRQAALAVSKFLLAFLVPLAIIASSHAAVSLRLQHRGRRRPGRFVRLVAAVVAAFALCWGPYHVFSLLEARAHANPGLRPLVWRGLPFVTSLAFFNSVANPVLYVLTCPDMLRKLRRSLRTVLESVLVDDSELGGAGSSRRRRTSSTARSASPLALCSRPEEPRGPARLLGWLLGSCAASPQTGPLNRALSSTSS
Put plainly: Functional antagonist BRET assay on HEK293 cells stably expressing CRTH2-Rluc and GFP2-β-arr2. The class given is cell-based. The conditions noted are these: antagonist incubated 15 minutes before agonist, read-out: Antag. IC50. An excerpt:
(§1) Generation/origin of the cDNA Constructs. The coding sequence of the human CRTH2 receptor (genbank accession no NM_004778) was amplified by PCR from a human hippocampus cDNA library and inserted into the pcDNA3.1(+) expression vector (invitrogen) via 5′ HindIII and 3′ EcoRI. To generate a CRTH2-Renilla luciferase (CRTH2-Rluc) fusion protein, the CRTH2 coding sequence without a STOP codon and Rluc were amplified, fused in frame by PCR and subcloned into the pcDNA3.1(+)Zeo expression vector (invitrogen). Human β-arrestin2 (β-arr2) N-terminally tagged with GFP^2 (βarr2-GFP^2) and Renilla luciferase were purchased from BioSignal Packard Inc, (Montreal, Canada). The sequence identity of the construct was verified by restriction endonuclease digests and sequencing in both directions on an ABI Prism (Applied Biosystems, Foster City, Calif.).
(§2) Cell Culture and Transfection. COS-7 cells were grown in Dulbecco's modified Eagle's medium (DMEM) 1885 supplemented with 10% fetal bovine serum, 100 units/ml penicillin, […] streptomycin, and kept at 37° C. in a 10% CO2 atmosphere. HEK293 cells were maintained in Minimum Essential medium (MEM) supplemented with 10% (v/v) heat inactivated fetal calf serum (HIFCS), 2 mM Glutamax™-I, 1% non essential amino acids (NEAA), 1% sodium pyruvate and 10 μg/ml gentamicin. For binding experiments, COS7 cells were transiently transfected with the CRTH2 receptor using a calcium phosphate-DNA coprecipitation method with the addition of chloroquine (as described by Hoist et al., 2001*). To perform the functional Bioluminescence Resonance Energy Transfer (BRET) assays, a HEK293 cell clone stably expressing βarr2-GFP^2 and CRTH2-Rluc was generated (CRTH2-HEK293 cells).
BRET assay. Functional BRET assays were performed on HEK293 cells stably expressing human CRTH2-Rluc and GFP^2-β-arr2. Prior to their use in the BRET assay cells were detached and re-suspended in D-PBS with 1000 mg/L L-Glucose at a density of 2×10^6 cells/mL. DeepBlueC™ was diluted to 50 μM in D-PBS with 1000 mg/L L-Glucose (light sensitive). 100 μL of cell suspension was transferred to wells in a 96-well microplate (white OptiPlate) and placed in the Mithras LB 940 instrument (BERTHOLD TECHNOLOGIES, Bad Wildbad, Germany). 12 μL/well agonist was then injected by injector 1 and 10 μL/well DeepBlueC™ was injected simultaneously by injector 2. Five seconds after the injections the light output from the well was measured sequentially at 400 nm and 515 nm, and the BRET signal (mBRET ratio) was calculated by the ratio of the fluorescence emitted by GFP^2-β-arr2 (515 nm) over the light emitted by the receptor-Rluc (400 nm). Antagonists were added before placing the microplates into the Mithras LB 940 and allowed to incubate for 15 minutes prior to the addition of agonist and DeepBlueC™. Compounds were dissolved in DMSO and the final DMSO concentration was kept constant at 1% in the assay.
(§3) Curve analysis was performed with the GraphPadPrism software 3.0 (Graphpad Prism Inc., San Diego, USA) and IC50 values were calculated as a measure of the antagonistic potencies.

A further assay concerns the target T2, human CRTH2 receptor (Homo sapiens, UniProt Q9Y5Y4, V204A).
T2 construct: expressed in transfected cells; host or cells: COS-7 cells, transient, pcDNA3.1(+)
T2 sequence (Q9Y5Y4 1-395 V204A): T1 sequence (Q9Y5Y4 1-395 V204A)
Briefly: Receptor binding assay: [3H]PGD2 competition on whole COS-7 cells transfected with CRTH2. The conditions noted are these: 0.1 nM [3H]PGD2, whole cells, 3 h at 4° C.
Description: as §1, §2
Binding assay. 24 h after transfection COS-7 cells were seeded into 96 well plates at a density of 30.000 cells/well. Competition binding experiments on whole cells were then performed about 18-24 h later using 0.1 nM [^3H]PGD2 (NEN, 172 Ci/mmol) in a binding buffer consisting of HBSS (GIBCO) and 10 mM HEPES. Competing ligands were diluted in DMSO which was kept constant at 1% (v/v) of the final incubation volume. Total and nonspecific binding were determined in the absence and presence of 10 μM PGD2. Binding reactions were routinely conducted for 3 h at 4° C. and terminated by 2 washes (100 μl each) with ice cold binding buffer. Radioactivity was determined by liquid scintillation counting in a TOPCOUNTER (Packard) following over night incubation in Microscint 20. Stable HEK293 cells were seeded at a density of 30.000 cells/well 18-24 h prior to the binding assay which was performed essentially as described for COS7 cells above. Determinations were made in duplicates.
as §3

Take `COc1ccc(C(c2ccc(OC)cc2)c2nc(-c3ccc(F)cc3)c(CC(=O)O)s2)cc1` [Compound A20, [2-[Bis-(4-methoxy-phenyl)-methyl]-4-(4-fluoro-phenyl)-thiazol-5-yl]-acetic acid]: the 50% inhibitory concentration (IC50) on human CRTH2-Rluc and on human CRTH2 receptor was below 0.5 µM in each case.
For `O=C(O)Cc1sc(C2(c3ccccc3)CCNCC2)nc1-c1ccc(Cl)cc1` [Compound A46, [4-(4-Chloro-phenyl)-2-(4-phenyl-piperidin-4-yl)-thiazol-5-yl]-acetic acid], the half-maximal inhibitory concentration (IC50) at human CRTH2-Rluc was above 5 µM; at human CRTH2 receptor it was 0.5 to 5 µM.
For `O=C(O)Cc1sc(C(c2ccc(F)cc2)c2ccc(F)cc2)nc1-c1ccc(F)cc1` [Compound A14, [2-[Bis-(4-fluoro-phenyl)-methyl]-4-(4-fluoro-phenyl)-thiazol-5-yl]-acetic acid] the same measures were below 0.5 µM and below 0.5 µM.
For `COc1ccc(C(c2ccccn2)c2nc(-c3ccc(Cl)cc3)c(CC(=O)O)s2)cc1` (centres unmarked) [Compound A31, {4-(4-Chloro-phenyl)-2-[(4-methoxy-phenyl)-pyridin-2-yl-methyl]-thiazol-5-yl}-acetic acid] the same measures were below 0.5 µM and below 0.5 µM.
The like results for `O=C(O)Cc1sc(C(Cc2ccccc2)c2ccc(Cl)cc2)nc1-c1ccc(F)cc1` (centres unmarked) [Compound A7, [2-[1-(4-Chloro-phenyl)-2-phenyl-ethyl]-4-(4-fluoro-phenyl)-thiazol-5-yl]-acetic acid] were, in that order, below 0.5 µM and below 0.5 µM.
On to `O=C(O)Cc1sc(C(c2ccccc2)c2ccc(Cl)cc2)nc1-c1ccc(Cl)cc1` (centres unmarked) [Compound A8, {4-(4-Chloro-phenyl)-2-[(4-chloro-phenyl)-phenyl-methyl]-thiazol-5-yl}-acetic acid], for which the IC50 at human CRTH2-Rluc and on human CRTH2 receptor was below 0.5 µM in each case.
`O=C(O)Cc1sc(C(Cc2ccccc2)c2ccccc2)nc1-c1ccc(Cl)cc1` (centres unmarked) [Compound A5, [4-(4-Chloro-phenyl)-2-(1,2-diphenyl-ethyl)-thiazol-5-yl]-acetic acid]: the IC50 on human CRTH2-Rluc is 0.5 to 5 µM; at human CRTH2 receptor it was below 0.5 µM.
As for `O=C(O)Cc1sc(Cc2ccccc2-c2ccccc2)nc1-c1ccc(Cl)cc1` [Compound A34, [2-Biphenyl-2-ylmethyl-4-(4-chloro-phenyl)-thiazol-5-yl]-acetic acid], the IC50 at human CRTH2-Rluc and on human CRTH2 receptor was below 0.5 µM in each case.
Turning to `O=C(O)Cc1sc(C(c2ccccc2)c2ccc(Cl)cc2)nc1-c1ccc(F)cc1` (centres unmarked) [Compound A10, [2-[(4-Chloro-phenyl)-phenyl-methyl]-4-(4-fluoro-phenyl)-thiazol-5-yl]-acetic acid], the concentration for half-maximal inhibition (IC50) at human CRTH2-Rluc and at human CRTH2 receptor was below 0.5 µM each time.
In the case of `O=C(O)Cc1sc(C(c2ccc(F)cc2)c2ccc(F)cc2)nc1-c1ccc(F)c(F)c1` [Compound A25, [2-[Bis-(4-fluoro-phenyl)-methyl]-4-(3,4-difluoro-phenyl)-thiazol-5-yl]-acetic acid], the IC50 at human CRTH2-Rluc and at human CRTH2 receptor was below 0.5 µM throughout.
Consider `COc1ccc(C(c2ccccc2)c2nc(-c3ccc(Cl)cc3)c(CC(=O)O)s2)cc1` (centres unmarked) [Compound A16, {4-(4-Chloro-phenyl)-2-[(4-methoxy-phenyl)-phenyl-methyl]-thiazol-5-yl}-acetic acid], for which the half-inhibitory concentration (IC50) on human CRTH2-Rluc and at human CRTH2 receptor was below 0.5 µM throughout.
As to `O=C(O)Cc1sc(C(c2ccccc2)c2ccccn2)nc1-c1ccc(Cl)cc1` (centres unmarked) [Compound A28, [4-(4-Chloro-phenyl)-2-(phenyl-pyridin-2-yl-methyl)-thiazol-5-yl]-acetic acid], the 50% inhibitory concentration (IC50) was 0.5 to 5 µM on human CRTH2-Rluc and below 0.5 µM on human CRTH2 receptor.
The like results for `COc1ccc(-c2ccccc2Cc2nc(-c3ccc(F)cc3)c(CC(=O)O)s2)cc1` [Compound A40, [4-(4-Fluoro-phenyl)-2-(4′-methoxy-biphenyl-2-ylmethyl)-thiazol-5-yl]-acetic acid] were, in that order, below 0.5 µM and below 0.5 µM.
For `O=C(O)Cc1sc(C(NC(=O)c2ccc(C(F)(F)F)cc2)c2ccccc2)nc1-c1ccc(F)cc1` (centres unmarked) [Compound A19, {4-(4-Fluoro-phenyl)-2-[phenyl-(4-trifluoromethyl-benzoylamino)-methyl]-thiazol-5-yl}-acetic acid] the same measures were above 5 µM and below 0.5 µM.
The like results for `O=C(O)Cc1sc(C(c2ccc(F)cc2)c2ccc(F)cc2)nc1-c1cccc(F)c1` [Compound A27, [2-[Bis-(4-fluoro-phenyl)-methyl]-4-(3-fluoro-phenyl)-thiazol-5-yl]-acetic acid] were, in that order, below 0.5 µM and below 0.5 µM.
As to `O=C(O)Cc1sc(C(c2ccccc2)c2ccccc2)nc1-c1ccc(Oc2ccccc2)cc1` [Compound A21, [2-Benzhydryl-4-(4-phenoxy-phenyl)-thiazol-5-yl]-acetic acid], the half-inhibitory concentration (IC50) is 0.5 to 5 µM on human CRTH2-Rluc and below 0.5 µM on human CRTH2 receptor.
For `O=C(O)Cc1sc(Cc2ccccc2-c2ccc3c(c2)OCO3)nc1-c1ccc(F)cc1` [Compound A42, [2-(2-Benzo[1,3]dioxol-5-yl-benzyl)-4-(4-fluoro-phenyl)-thiazol-5-yl]-acetic acid] the same measures were below 0.5 µM and below 0.5 µM.
On to `O=C(O)Cc1sc(C(c2ccccc2)c2ccccc2)nc1-c1ccc(F)cc1` [Compound A4, [2-Benzhydryl-4-(4-fluoro-phenyl)-thiazol-5-yl]-acetic acid], for which the half-maximal inhibitory concentration (IC50) on human CRTH2-Rluc and on human CRTH2 receptor was below 0.5 µM in each case.
As for `O=C(O)Cc1sc(C(c2ccccc2)c2ccccc2)nc1-c1ccc(C(F)(F)F)cc1` [Compound A24, [2-Benzhydryl-4-(4-trifluoromethyl-phenyl)-thiazol-5-yl]-acetic acid], the figures for the half-inhibitory concentration (IC50) on human CRTH2-Rluc and at human CRTH2 receptor were above 5 µM and 0.5 to 5 µM, respectively.

As usually defined, the IC50 is the concentration needed to halve the response being measured.
